Measured values taken from the NIST ThermoML archive (doi:10.1021/acs.jced.8b01209).
± gives the expanded uncertainty stated by the source.

Legend:
[1] = Molar enthalpy of transition or fusion; conditions: Crystal; DSC
[2] = Crystal; DSC

Question: With `Cc1ccc2cc(C)ccc2c1` [2,6-dimethylnaphthalene] as the molecule, how does the “Molar enthalpy of transition or fusion” value [1] read?
Answer: Its value is 24.9 ± 0.57 kJ/mol.

Question: What about the Triple point temperature [2] of the same molecule?
Answer: The Triple point temperature was 384.41 ± 1.2 K.
